Here are results for 3 compounds from patent US11358931B2, “Selective androgen receptor modulators (SARMs) and uses thereof” (priority 2007, dated 2022).

pEC50, pIC50, pKi: −log10 of the molar value. Where two headings read alike, the source gives them in different places.

For assay [1], the target named is T1, baculovirus expressed hAR protein (Homo sapiens, UniProt P10275).
T1 construct: made in house; host or cells: Sf-21 insect cells (baculovirus)
T1 sequence (P10275 1-920): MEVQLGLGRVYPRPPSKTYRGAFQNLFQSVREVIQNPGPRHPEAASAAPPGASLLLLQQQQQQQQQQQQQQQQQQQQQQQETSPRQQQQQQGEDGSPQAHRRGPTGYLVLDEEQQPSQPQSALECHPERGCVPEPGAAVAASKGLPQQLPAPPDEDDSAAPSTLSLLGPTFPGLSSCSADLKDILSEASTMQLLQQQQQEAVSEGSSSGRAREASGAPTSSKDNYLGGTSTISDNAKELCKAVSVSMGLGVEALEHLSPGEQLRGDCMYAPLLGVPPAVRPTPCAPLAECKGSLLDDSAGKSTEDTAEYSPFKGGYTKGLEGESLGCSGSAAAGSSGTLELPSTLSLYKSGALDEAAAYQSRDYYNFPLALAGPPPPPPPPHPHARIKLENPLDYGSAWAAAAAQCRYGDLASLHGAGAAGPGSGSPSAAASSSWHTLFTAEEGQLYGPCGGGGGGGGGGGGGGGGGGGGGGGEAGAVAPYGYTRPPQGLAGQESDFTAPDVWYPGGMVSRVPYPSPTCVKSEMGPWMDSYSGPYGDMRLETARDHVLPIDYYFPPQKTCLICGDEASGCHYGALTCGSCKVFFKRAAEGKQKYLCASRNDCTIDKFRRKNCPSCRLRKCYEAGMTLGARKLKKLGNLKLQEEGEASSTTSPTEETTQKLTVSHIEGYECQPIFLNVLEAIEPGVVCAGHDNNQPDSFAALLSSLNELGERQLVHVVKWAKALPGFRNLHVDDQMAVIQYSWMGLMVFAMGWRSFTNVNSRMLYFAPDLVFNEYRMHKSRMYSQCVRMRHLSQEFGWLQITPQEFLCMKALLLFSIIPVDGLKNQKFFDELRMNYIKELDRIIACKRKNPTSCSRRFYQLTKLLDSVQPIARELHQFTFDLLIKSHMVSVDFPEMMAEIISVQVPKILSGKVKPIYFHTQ
Put plainly: Receptor binding assay ([3H]-dihydrotestosterone displacement).

Assay [2] has as its target endogenous human androgen receptor (hAR) (Homo sapiens, UniProt P10275). Put plainly: Activation of hAR-responsive luciferase reporter in MDA-MB-453 cells. The assay is classed as cell-based. As to the method:
A functional assay was conducted to determine the ability of test substances to modulate gene expression via endogenous human androgen receptor (hAR) in a human cell line. A luciferase reporter assay was utilized to establish the ability of test compounds to activate hAR-regulated gene expression in a human cell line containing endogenously expressed hAR (MDAMB-453 cells) transfected with an androgen-responsive luciferase reporter plasmid containing the cDNA for firefly luciferase. MDA-MB-453 cells were transfected with a plasmid containing the cDNA for firefly luciferase (LUC) under the control of a conditional promoter containing hormone response elements recognized by AR (MMTV-LUC) and a P-galactosidase expression plasmid (pRS-(3-Gal) for normalization of transfection efficiency. The reporter plasmid MMTVLUC contains the mouse Mammary Tumor Virus (MMTV) Long Terminal Repeat (LTR) conditional promoter containing hormone response elements recognized by hAR. The luciferase response was calculated as: Luciferase response/β-gal rate where
Luciferase response=Relative Luciferase Units (RLU) and
β-gal rate=β-gal 0.D.415/β-Gal incubation time in minutes.
The mean of the normalized response at each concentration of compound was calculated. The effective concentration that produced 50% of the maximum response (EC50) was determined for each compound by interpolation between two concentrations spanning the midpoint of the concentration-response curve. Agonist efficacy for test compounds was calculated as a percent of normalized response relative to the maximum normalized response by the reference agonist DHT.
(In general: In a reporter assay the amount or activity of a reporter protein is the signal.)

Assay [3] relates to TNFα-IL-1β-induced IL-6 promoter activity. Put plainly: IL-6 promoter repression assay (Saos-2 human osteoblast cells transfected with human AR). Type of assay: cell-based. Conditions: for pIC50: Homo sapiens, read-out: average IC50, suppression of TNFα-IL-1β-induced IL-6 promoter activity. An excerpt: An exemplary cotransfection assay for measuring AR-mediated effects on bone measures the modulation of IL-6 promoter activity. IL-6 is an important bone resorption factor (Jilka et al, Science 257: 88-91 (1992); Bellido et al., J Clin Invest 95: 2886-2895 (1995)). Overexpression of IL-6 can cause severe bone loss in vivo. […] It has been reported that androgens regulate IL-6 mRNA by suppressing NFKB binding to its response element (Keller et al., J Biol Chem 271: 26267-26275 (1996)). Thus, the AR-mediated modulation of IL-6 promoter activity provides an excellent marker for studying androgen action in bone. The assay is a cotransfection assay that measures the ability of compound to repress gene expression via the human androgen receptor from the IL-6 promoter using a luciferase reporter assay in human osteoblast cells.
A human osteoblast cell line (Saos-2, available from American Type Cell Culture (ATCC, Rockville, Md.)) can be used in the luciferase reporter assay. An IL-6-LUC reporter plasmid can be constructed by inserting the IL-6 promoter sequence into a luciferase reporter vector (e.g., by cloning the human IL-6 promoter region from −232 to +17 bp from human liver genomic DNA (Clontech, Palo Alti, Calif.) and inserting the sequence into a pGL2-enhancer reporter plasmid (Promega, Madison, Wis.)). The Saos-2 cell line can be transiently transfected with a human AR expression plasmid and a luciferase reporter plasmid containing the IL-6 promoter upstream of the luciferase cDNA. The compounds to be tested are added to the cells after transfection and after 24 hours of incubation, the cells are lysed with a detergent-containing buffer and assayed for luciferase activity. The EC50 is determined from the concentration response curve for the compound, and the inhibitory effect on TNFα/IL-1β induction (% inhibition) can be calculated according to the equation: […]
IL-6 is an important bone resorption factor. Over-expression of IL-6 can cause severe bone loss in vivo. Reducing IL-6 production by bone cells would be therapeutically beneficial by reducing bone resorption. Compound 102 and the androgen receptor modulators LG0893410 and LG0893411 were tested to determine their ability to suppress TNFα-IL-1β-induced IL-6 promoter activity in Saos-2 human osteoblast cells using a cotransfection assay. A human osteoblast cell line (Saos-2) was transiently transfected with a human AR expression plasmid and a luciferase reporter plasmid containing the IL-6 promoter upstream of the luciferase cDNA. Saos-2 cells were seeded at 6000 cells/well in 96-well plates. The same day, a non-liposomal formulation, FuGENE 6 reagent (Roche, Indianapolis, Ind.) was used for transfection of the cells. To each well was added […] of the IL-6-LUC reporter plasmid and 0.7 μg of pCMV-hAR. Twenty-four hours after transfection, different concentrations of the solvated compound (10^−11 to 10^−6 M) in DMEM (Dulbecco's Minimal Essential Media) were added in triplicate to the cells and the cells were incubated for 24 hours. The expression of luciferase was stimulated by the cytokines Tumor Necrosis Factor α (TNFα, 10 ng/mL) and Interleukin-1 beta (IL-1β, 1 ng/mL). The medium was aspirated and the cells were lysed with a detergent-containing buffer. After addition of Luciferase Assay Buffer to each well, the cells were assayed for luciferase activity using a luminometer to determine the level of transcriptional activation.

[4] abbreviates: MDA-MB-453 cells, MMTV-LUC; read-out: EC50, activating hAR-responsive luciferase reporter.

For `N#Cc1ccc(N2CCC[C@@H]2[C@@H](O)C(F)(F)F)cc1C(F)(F)F` [Compound 102, R,R-4-(2-(1-Hydroxyl-2,2,2-trifluoroethyl)-pyrrolidinyl)-2-trifluoromethyl-benzonitrile], in assay [1], the pKi was 9.05. The “more potent than LG0893410 and LG0893411 in activating hAR-responsive luciferase reporter” value in assay [2] (ratio of EC50) lay in the range of 8.5 to 12.5 times. Further, the negative logarithm of the EC50 (pEC50) in assay [2] (read-out: EC50, activating hAR-responsive luciferase reporter; MDA-MB-453 cells, MMTV-LUC) is 8.55. Besides, in assay [3] (Saos-2 cells), the pIC50 is 9.39 and the “efficacy, % of DHT” value amounted to 97%. Moreover, the “more potent than LG0893410 and LG0893411 in suppressing IL-6 promoter activity” value in assay [3] (ratio of IC50) was 3-4 fold.
With `O=[N+]([O-])c1ccc(N2CCC[C@@H]2[C@H](O)C(F)(F)F)cc1C(F)(F)F` [LG0893411, S, R-2,2,2-trifluoro-1-[1-(4-nitro-3-trifluoromethyl-phenyl)-pyrrolidin-2-yl]-ethanol], in assay [1], the pKi was 8.24. Moreover, the negative-log EC50 (pEC50) in assay [2] (setting [4]) was 7.46. Besides, the pIC50 in assay [3] (Saos-2 cells) was 8.82.
As to `O=[N+]([O-])c1ccc(N2CCC[C@@H]2[C@@H](O)C(F)(F)F)cc1C(F)(F)F` [LG0893410, R,R-2,2,2-trifluoro-1-[1-(4-nitro-3-trifluoromethyl-phenyl)-pyrrolidin-2-yl]-ethanol], the pKi in assay [1] was 8.60. The negative-log EC50 (pEC50) in assay [2] (setting [4]) was 7.62. Besides, the pIC50 in assay [3] (Saos-2 cells) was 8.92.

Broadly, the pKi is the Ki on a negative log10 scale, so that one unit is a factor of ten. Usually pEC50 stands for the negative decadic logarithm of the EC50, by convention in mol/L. For orientation: pIC50 means the negative decadic logarithm of the IC50, by convention in mol/L.
